Experiment [1] has as its system symmetric dimethylation of arginine (SDMA) of PRMT5 substrates in MCF-7 cells. The experiment can be described thus: PRMT5 Cell Target Engagement (TE) Assay. The format is cell-based. Particulars: treated for 3 days, nuclear SDMA by high content imaging, top concentration 10000 nM. The source says:
The PRMT5 TE assay is a biomarker assay for identifying compounds that inhibit symmetric dimethylation of arginine (SDMA) of PRMT5 substrates. The following substrates have been reported for PRMT5: histone H2A and H4 R3, Histone H3 R2, Histone H3 R8, spliceosome Sm proteins, ribosomal protein RPS10, p53, FEN1, nudeoplasmin, nucleolin, EGFR and EBNA. The assay will focus on detecting symmetrically dimethylated nuclear proteins using high content imaging technology. Detection of the expression of symmetrically dimethylated nuclear proteins is through a mixture of primary rabbit monoclonal antibodies to SDMA (CST 13222), which in turn recognized by an Alexafluor 488 dye-conjugated anti-rabbit IgG secondary antibody. The IN Cell Analyzer 2200 or Opera-Phenix measures nuclear Alexafluor 488 fluorescent dye intensity that is directly related to the level of expression of symmetrically dimethylated nuclear proteins at the single cell level. Nuclear AF488 dye intensities are compared to the mean value for DMSO treated cells (MIN) to report percent of inhibition for each compound-treated well.
In this assay, the cell potency (EC50) of each compound was determined from a ten point (1:3 serial dilution; top compound concentration of 10000 nM) titration curve using the following outlined procedure. Each well of a BD falcon collagen coated black/clear bottom 384-well plate was seeded with 4000 MCF-7 cells in 30 μl media and allowed to attach for 5 h. Media is ATCC-formulated Eagle's Minimum Essential Medium, Catalog No. 30-2003. To make the complete growth medium, the following components were added to the base medium: 0.01 mg/ml human recombinant insulin; fetal bovine serum to a final concentration of 10%. Additional 30 μl of media containing 2× compounds were added to each well. Cells were treated for 3 days in 37° C. CO2 incubator. On day 3, cells were fixed with Cytofix, permeablized with 0.4% Triton-X-100/Cytofix, and washed with D-PBS without Ca/Mg. Cells were blocked with Licor Odessey blocking reagent for 1 h at room temperature, followed by incubation with anti-SDMA (1:1000) antibody at 4° C. overnight. 1° antibody was removed, followed by three washings with DPBS without Ca/Mg and 0.05% Tween20. Hoechst (5 μg/ml), Cell Mask deep stain (1:2000) and Alexa488-conjugated goat anti-rabbit IgG (2 μg/mL) was added for 1 hour at room temperature. A final washing step (three washes) was performed before sealing plate for imaging on In Cell Analyzer 2200 or Opera-Phenix. Images from analyzer were uploaded to Columbus (at WP or BOS) for image analysis. IC50 values were determined by 4 parameters robust fit of percent fluorescence units vs. (Logic) compound concentrations.

Experiment [2] addresses T1, PRMT5-MEP50 enzyme complex (Homo sapiens, UniProt O14744).
T1 construct: 1.25 nM of Full-length (FL)-PRMT5-MEP50 enzyme complex; made in house; host or cells: baculovirus-transfected Sf21 cells
The experiment can be described thus: PRMT5-MEP50 Enzyme Methylation Assay. It is filed as biochemical. Here is the method: PRMT5-MEP50 biochemical assay is a direct measurement of the methylation activity of the enzyme complex on a short peptide substrate derived from the N-terminus of H4 histone. Methylation experiment is performed with recombinant PRMT5-MEP50 protein complex. The assessment of inhibitory effect of small molecules is measured by tire effectiveness of the compounds to inhibit tins reaction (EC50).
In this assay, the potency (EC50) of each compound was determined from a twenty-point (1:2 serial dilution; top compound concentration of 100000 nM) titration curve using the following outlined procedure. To each well of a white ProxiPlus 384 well-plate, 100 nL of compound (1% DMSO in final assay volume of 10 μL) was dispensed, followed by the addition of 8 μL of 1× assay buffer (50 mM Bicine pH 8.0, 1 mM DTT, 0.004% Tween20, 0.01% BSA) containing 1.25 nM of Full-length (FL)-PRMT5-MEP50 enzyme complex (recombinant proteins from baculovirus-transfected Sf21 cells: FL-PRMT5; MW=[…] and FL-MEP50; MW=38614) and 1 μL of 150 μM S-(5′-Adenosyl)-L-Methionine Chloride (SAM). Plates were sealed and placed in a 37° C. humidified chamber for a 60 minutes pre-incubation with compound. Subsequently, each reaction was initiated by the addition of 1 μL 1× assay buffer containing 750 nM biotinylated H4R3(Mel) peptide. The final reaction in each well of 10 μL consists of 1.0 nM PRMT5-MEP50, 75 nM biotinylated-peptide, and […] SAM. Methylation reactions were allowed to proceed for 150 minutes in a sealed plate at 37° C. Reactions were immediately quenched by the addition of 1 μL of 5% formic acid. Plates were then frozen and shipped to SAMDITM Tech Inc. to determine the percent conversion from H4R3(Mel) to H4R3(Me2). Dose-response curves were generated by plotting percent effect (% product conversion; Y-axis) vs. Log 10 compound concentrations (X-axis). EC50 values were determined by non-linear regression according to models for either sigmoidal (4 parameters) or biphasic (7 parameters) dose-response curves.

Where [3] appears, read: single EC50 from 4 parameters single site sigmoidal model, or first EC50 of 7 parameters biphasic model, 1.0 nM PRMT5-MEP50, H4R3(Me1) peptide, SAM, read-out: Enzyme Methylation Assay (EC50 or EC50_1).
[4] abbreviates: second EC50 of 7 parameters biphasic model, read-out: Enzyme Methylation Assay (EC50_2).

Molecules are shown by their SMILES. Read-outs that look alike come from different tables or passages of the source.

T1 sequence (O14744 whole entry): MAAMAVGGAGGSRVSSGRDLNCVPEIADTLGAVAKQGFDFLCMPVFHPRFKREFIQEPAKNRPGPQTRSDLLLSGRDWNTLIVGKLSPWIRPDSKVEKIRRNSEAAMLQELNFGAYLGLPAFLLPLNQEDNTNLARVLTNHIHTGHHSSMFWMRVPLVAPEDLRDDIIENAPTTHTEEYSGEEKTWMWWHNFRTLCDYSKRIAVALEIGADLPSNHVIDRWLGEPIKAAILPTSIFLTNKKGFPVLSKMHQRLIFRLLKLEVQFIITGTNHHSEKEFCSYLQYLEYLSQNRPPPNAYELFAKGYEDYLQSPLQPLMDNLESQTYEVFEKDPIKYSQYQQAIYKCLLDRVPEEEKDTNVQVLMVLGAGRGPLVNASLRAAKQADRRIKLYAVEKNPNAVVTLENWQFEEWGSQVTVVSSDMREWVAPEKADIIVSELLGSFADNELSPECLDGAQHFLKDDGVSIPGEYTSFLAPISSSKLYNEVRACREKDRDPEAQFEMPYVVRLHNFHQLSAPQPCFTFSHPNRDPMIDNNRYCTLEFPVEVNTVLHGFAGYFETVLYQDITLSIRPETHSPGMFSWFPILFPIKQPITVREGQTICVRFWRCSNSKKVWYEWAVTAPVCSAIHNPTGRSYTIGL
T1 sequence (Q9BQA1 whole entry partner): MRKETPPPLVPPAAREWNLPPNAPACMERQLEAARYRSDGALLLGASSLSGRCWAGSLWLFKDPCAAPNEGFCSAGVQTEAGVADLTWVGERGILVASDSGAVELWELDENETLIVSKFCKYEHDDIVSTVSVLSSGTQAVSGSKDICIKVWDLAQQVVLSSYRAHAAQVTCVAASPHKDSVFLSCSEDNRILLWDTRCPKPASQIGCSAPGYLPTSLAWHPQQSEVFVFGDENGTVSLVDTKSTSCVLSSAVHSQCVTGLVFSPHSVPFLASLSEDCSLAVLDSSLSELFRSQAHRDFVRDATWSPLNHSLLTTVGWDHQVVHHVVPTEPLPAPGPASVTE

As to `Cc1ncnc2c1ccn2[C@@H]1S[C@H](CCc2ccc3cc(F)c(N)nc3c2)[C@@H](O)[C@H]1O` [Example 22, (2R,3S,4R,5R)-2-[2-(2-amino-3-fluoroquinolin-7-yl)ethyl]-5-(4-methyl-7H-pyrrolo[2,3-d]pyrimidin-7-yl)tetrahydrodrothiophene-3,4-diol], the EC50 is 5.9 nM in experiment [1] (Homo sapiens, MCF7, 72 h) and 10.1 nM in experiment [2] (setting [3]).

On to `Nc1nc2cc(OC[C@H]3S[C@@H](n4ccc5c(N)ncnc54)[C@H](O)[C@@H]3O)ccc2cc1Cl` [Example 2, 7-[5-O-(2-amino-3-chloroquinolin-7-yl)-4-thio-beta-D-ribofuranosyl]-7H-pyrrolo[2,3-d]pyrimidin-4-amine], for which the EC50 is 112 nM in experiment [1] (Homo sapiens, MCF7, 72 h); 200 nM in experiment [2] (setting [4]); 2.2 nM in experiment [2] (setting [3]).

Consider `Cc1ncnc2c1ccn2[C@@H]1SC(CCc2ccc3ccc(NCC(F)F)nc3c2)[C@@H](O)[C@H]1O` (stereo in doubt) [Example 27, (2S,3S,4R,5R)-2-(2-{2-[(2,2-difluoroethyl)amino]quinolin-7-yl}ethyl)-5-(4-methyl-7H-pyrrolo[2,3-d]pyrimidin-7-yl)tetrahydrothiophene-3,4-diol], for which the EC50 amounted to 55 nM in experiment [1] and 47.7 nM in experiment [2] (setting [3]).

`C[C@]1(COc2ccc3cc(Br)c(N)nc3c2)S[C@@H](n2ccc3c(Cl)ncnc32)[C@H](O)[C@@H]1O` [Example 6, (2R,3S,4R,5R)-2-(((2-amino-3-bromoquinolin-7-yl)oxy)methyl)-5-(4-chloro-7H-pyrrolo[2,3-d]pyrimidin-7-yl)-2-methyltetrahydrothiophene-3,4-diol]: the EC50 in experiment [1] (Homo sapiens, MCF7, 72 h) is 1130 nM; in experiment [2] (setting [3]), 9.8 nM.

Regarding `CNc1ncnc2c1ccn2[C@@H]1S[C@](C)(CCc2ccc3cc(Br)c(N)nc3c2)[C@@H](O)[C@H]1O` [Example 33, (2R,3S,4R,5R)-2-(2-(2-amino-3-bromoquinolin-7-yl)ethyl)-2-methyl-5-(4-(methylamino)-7H-pyrrolo[2,3-d]pyrimidin-7-yl)tetrahydrothiophene-3,4-diol], the EC50 in experiment [1] (Homo sapiens, MCF7, 72 h) worked out at 13.5 nM; in experiment [2] (setting [3]), 0.8 nM.

For the compound `Cc1ncnc2c1ccn2[C@@H]1S[C@@H](CCc2ccc3cc(C(F)F)c(N)nc3c2)[C@@H](O)[C@H]1O` [Example 41, (2S,3S,4R,5R)-2-(2-(2-amino-3-(difluoromethyl)quinolin-7-yl)ethyl)-5-(4-methyl-7H-pyrrolo[2,3-d]pyrimidin-7-yl)tetrahydrothiophene-3,4-diol], the EC50 in experiment [1] (Homo sapiens, MCF7, 72 h) was found to be 123 nM; in experiment [2] (setting [4]), 661 nM; in experiment [2] (setting [3]), 1.2 nM.

Consider `Cc1ncnc2c1ccn2[C@@H]1S[C@H](CCc2ccc3ccc(N)nc3c2)[C@@H](O)[C@H]1O` [Example 17], for which the EC50 was 0.6 nM in experiment [1] (Homo sapiens, MCF7, 72 h) and 0.4 nM in experiment [2] (setting [3]).

As to `Nc1nc2cc(CC[C@H]3S[C@@H](n4ccc5c(N)ncnc54)[C@H](O)[C@@H]3O)ccc2cc1Cl` [Example 43, (2R,3S,4R,5R)-2-(2-(2-amino-3-chloroquinolin-7-yl)ethyl)-5-(4-amino-7H-pyrrolo[2,3-d]pyrimidin-7-yl)tetrahydrothiophene-3,4-diol], the EC50 in experiment [1] (Homo sapiens, MCF7, 72 h) came out at 2.4 nM; in experiment [2] (setting [3]) it was 0.7 nM.

As for `Cc1cc2ccc(CC[C@@H]3S[C@@H](n4ccc5c(C)ncnc54)[C@H](O)[C@@H]3O)cc2nc1N` (single isomer, unassigned) [Example 29], the EC50 in experiment [1] (Homo sapiens, MCF7, 72 h) amounted to 0.9 nM; in experiment [2] (setting [3]), 0.6 nM.

On to `Cc1nc(N)c2ccn([C@@H]3S[C@H](CCc4ccc5cc(Br)c(N)nc5c4)[C@@H](O)[C@H]3O)c2n1` [Example 35, (2R,3R,4S,5R)-2-(4-amino-2-methyl-7H-pyrrolo[2,3-d]pyrimidin-7-yl)-5-(2-(2-amino-3-bromoquinolin-7-yl)ethyl)tetrahydrothiophene-3,4-diol], for which the EC50 in experiment [1] (Homo sapiens, MCF7, 72 h) is 35.6 nM; in experiment [2] (setting [3]) it was 1.7 nM.

Consider `Cc1ncnc2c1ccn2[C@@H]1S[C@@H](CCc2ccc3cc4c(nc3c2)NC(C)C4)[C@@H](O)[C@H]1O` (single isomer, unassigned) [Example 39, (2S,3S,4R,5R)-2-(2-((R or S)-2-methyl-2,3-dihydro-1H-pyrrolo[2,3-b]quinolin-7-yl)ethyl)-5-(4-methyl-7H-pyrrolo[2,3-d]pyrimidin-7-yl)tetrahydrothiophene-3,4-diol], for which the EC50 in experiment [1] stood at 2440 nM; in experiment [2] (setting [3]) it was 21.9 nM.

Consider `Nc1ccc2ccc(CC[C@@H]3S[C@@H](n4ccc5c(N)ncnc54)[C@H](O)[C@@H]3O)cc2n1` [Example 15, (2R,3R,4S,5S)-2-(4-amino-7H-pyrrolo[2,3-d]pyrimidin-7-yl)-5-(2-(2-aminoquinolin-7-yl)ethyl)tetrahydrothiophene-3,4-diol], for which the EC50 stood at 1.4 nM in experiment [1] (Homo sapiens, MCF7, 72 h) and 0.9 nM in experiment [2] (setting [3]).

Consider `COc1ncnc2c1ccn2[C@@H]1S[C@H](COc2ccc3ccc(N)nc3c2)[C@@H](O)[C@H]1O` [Example 10, (2R,3S,4R,5R)-2-(((2-aminoquinolin-7-yl)oxy)methyl)-5-(4-methoxy-7H-pyrrolo[2,3-d]pyrimidin-7yl)tetrahydrothiophene-3,4-diol], for which the EC50 in experiment [1] (Homo sapiens, MCF7, 72 h) is 6020 nM; in experiment [2] (setting [4]), 16200 nM; in experiment [2] (setting [3]) it was 19.5 nM.

Turning to `Cc1ncnc2c1ccn2[C@@H]1S[C@@H](CCc2ccc3ccc(N)nc3c2)[C@@H](O)[C@H]1O` [Example 16, (2S,3S,4R,5R)-2-[2-(2-aminoquinolin-7-yl)ethyl]-5-(4-methyl-7H-pyrrolo[2,3-d]pyrimidin-7-yl)tetrahydrothiophene-3,4-diol], the EC50 in experiment [1] (Homo sapiens, MCF7, 72 h) came out at 1.6 nM; in experiment [2] (setting [3]), 1.7 nM.

Consider `Nc1nc2cc(CC[C@@H]3S[C@@H](n4ccc5c(N)ncnc54)[C@H](O)[C@@H]3O)ccc2cc1Br` [Example 13, (2S,3S,4R,5R)-2-(2-(2-amino-3-bromoquinolin-7-yl)ethyl)-5-(4-amino-7H-pyrrolo[2,3-d]pyrimidin-7-yl)tetrahydrothiophene-3,4-diol], for which the EC50 in experiment [1] (Homo sapiens, MCF7, 72 h) turned out to be 3.2 nM; in experiment [2] (setting [3]), 0.3 nM.

For the compound `Cc1cc2ccc(CC[C@H]3S[C@@H](n4ccc5c(C)ncnc54)[C@H](O)[C@@H]3O)cc2nc1N` (single isomer, unassigned) [Example 28], the EC50 in experiment [1] (Homo sapiens, MCF7, 72 h) came to 1.4 nM; in experiment [2] (setting [3]), 0.7 nM.

Regarding `Cc1ncnc2c1ccn2[C@@H]1S[C@H](CCc2ccc3ccc(NCC(F)F)nc3c2)[C@@H](O)[C@H]1O` [Example 26, (2R,3S,4R,5R)-2-(2-{2-[(2,2-difluoroethyl)amino]quinolin-7-yl}ethyl)-5-(4-methyl-7H-pyrrolo[2,3-d]pyrimidin-7-yl)tetrahydrothiophene-3,4-diol], the results for the EC50 in experiment [1] and in experiment [2] (setting [3]) were 10.5 nM and 59.6 nM, respectively.

The values are drawn from US20210277009A1, “PRMT5 INHIBITORS” (Merck Sharp & Dohme Corp., priority 2018, published 2021).
